# According to patent US10004701B2, “Methods and compositions for treating infection” (UNIVERSITY OF ROCHESTER, priority 2012, dated 2018):
# Structures can show the parent of a compound that is named as a salt. Where two headings read alike, the source gives them in different places.
# Legend:
# Assay in all cases: AK assay 384-well format, Prestwick library screening
# E. cloacae = type: cell-based, Enterobacter cloacae; conditions: Enterobacter cloacae, 3 h, 50 μM final drug concentration
# [1] = system: A. baumannii strain 98-37-09; type: cell-based, Acinetobacter baumannii; conditions: Acinetobacter baumannii, 983709, 3 h, 50 μM final drug concentration
# [2] = system: S. aureus strain USA300-0114; type: cell-based, Staphylococcus aureus; conditions: Staphylococcus aureus, USA300, 3 h, 50 μM final drug concentration
# E. coli = type: cell-based, Escherichia coli; conditions: Escherichia coli, 3 h, 50 μM final drug concentration
# P. aeruginosa = type: cell-based, Pseudomonas aeruginosa; conditions: Pseudomonas aeruginosa, 3 h, 50 μM final drug concentration
# E. faecium = type: cell-based, Enterococcus faecium; conditions: Enterococcus faecium, 3 h, 50 μM final drug concentration
# K. pneumoniae = type: cell-based, Klebsiella pneumoniae; conditions: Klebsiella pneumoniae, 3 h, 50 μM final drug concentration
# [3] = planktonic E. cloacae, positive cutoff 3-fold increase, read-out: AK-based Prestwick library screening result, E. cloacae (fold increase in extracellular AK activity)
# [4] = planktonic A. baumannii, positive cutoff 3-fold increase, read-out: AK-based Prestwick library screening result, A. baumannii (fold increase in extracellular AK activity)
# [5] = planktonic S. aureus, positive cutoff 3-fold increase, read-out: AK-based Prestwick library screening result, S. aureus (fold increase in extracellular AK activity)
# [6] = planktonic E. coli, positive cutoff 3-fold increase, read-out: AK-based Prestwick library screening result, E. coli (fold increase in extracellular AK activity)
# [7] = planktonic P. aeruginosa, positive cutoff 3-fold increase, read-out: AK-based Prestwick library screening result, P. aeruginosa (fold increase in extracellular AK activity)
# [8] = planktonic E. faecium, positive cutoff 3-fold increase, read-out: AK-based Prestwick library screening result, E. faecium (fold increase in extracellular AK activity)
# [9] = planktonic K. pneumoniae, positive cutoff 3-fold increase, read-out: AK-based Prestwick library screening result, K. pneumoniae (fold increase in extracellular AK activity)
# [10] = planktonic E. cloacae, 384-well, cutoff for positive-scoring molecules 3-fold increase, read-out: AK-based Prestwick Library Screening Results: E. cloacae (increase in extracellular AK activity)
# [11] = planktonic A. baumannii, 384-well, cutoff for positive-scoring molecules 3-fold increase, read-out: AK-based Prestwick Library Screening Results: A. baumannii (increase in extracellular AK activity)
# [12] = planktonic S. aureus, 384-well, cutoff for positive-scoring molecules 3-fold increase, read-out: AK-based Prestwick Library Screening Results: S. aureus (increase in extracellular AK activity)
# [13] = planktonic E. coli, 384-well, cutoff for positive-scoring molecules 3-fold increase, read-out: AK-based Prestwick Library Screening Results: E. coli (increase in extracellular AK activity)
# [14] = planktonic P. aeruginosa, 384-well, cutoff for positive-scoring molecules 3-fold increase, read-out: AK-based Prestwick Library Screening Results: P. aeruginosa (increase in extracellular AK activity)
# [15] = planktonic E. faecium, 384-well, cutoff for positive-scoring molecules 3-fold increase, read-out: AK-based Prestwick Library Screening Results: E. faecium (increase in extracellular AK activity)
# [16] = planktonic K. pneumoniae, 384-well, cutoff for positive-scoring molecules 3-fold increase, read-out: AK-based Prestwick Library Screening Results: K. pneumoniae (increase in extracellular AK activity)
smiles,measurement,setting,value
Cc1cc(=O)n(-c2ccccc2)n1C [Antipyrine],fold induction at 50 µM,"E. cloacae; 384-well format, […], read-out: AK-based Prestwick Library Screening Results, E. cloacae (increase in extracellular AK activity)",1
same,fold induction at 50 µM,"[1]; 384-well format, […], read-out: AK-based Prestwick Library Screening Results, A. baumannii (increase in extracellular AK activity)",1
same,fold induction at 50 µM,"[2]; 384-well format, […], read-out: AK-based Prestwick Library Screening Results, S. aureus (increase in extracellular AK activity)",0.7
same,fold induction at 50 µM,"E. coli; 384-well format, cutoff for positive-scoring molecules 3-fold increase, read-out: AK-based Prestwick Library Screening Results, E. coli (increase in extracellular AK activity)",0.9
same,fold induction at 50 µM,"P. aeruginosa; 384-well format, […], read-out: AK-based Prestwick Library Screening Results, P. aeruginosa (increase in extracellular AK activity)",0.8
same,fold induction at 50 µM,"E. faecium; 384-well format, […], read-out: AK-based Prestwick Library Screening Results, E. faecium (increase in extracellular AK activity)",1
same,fold induction at 50 µM,"K. pneumoniae; 384-well format, […], read-out: AK-based Prestwick Library Screening Results, K. pneumoniae (increase in extracellular AK activity)",0.7
CN[C@@H]1[C@@H](O[C@H]2O[C@H](CO)[C@@H](N)[C@H](O)[C@H]2O)OC2C[C@@H](N)[C@@H](O[C@H]3[C@H](O)[C@@H](O)[C@H](N)C[C@@H]3N)OC2[C@@H]1O (stereo partly drawn) [Apramycin],fold induction at 50 µM,E. cloacae; [3],1.4
same,fold induction at 50 µM,[1]; [4],1
same,fold induction at 50 µM,[2]; [5],0.9
same,fold induction at 50 µM,E. coli; [6],1.2
same,fold induction at 50 µM,P. aeruginosa; [7],1.1
same,fold induction at 50 µM,E. faecium; [8],1
same,fold induction at 50 µM,K. pneumoniae; [9],0.8
OC[C@H]1O[C@@H](Oc2ccc(O)cc2)[C@H](O)[C@@H](O)[C@@H]1O [Arbutin],fold induction at 50 µM,E. cloacae; [3],1.4
same,fold induction at 50 µM,[1]; [4],1.5
same,fold induction at 50 µM,[2]; [5],1.1
same,fold induction at 50 µM,E. coli; [6],1.2
same,fold induction at 50 µM,P. aeruginosa; [7],1.1
same,fold induction at 50 µM,E. faecium; [8],0.9
same,fold induction at 50 µM,K. pneumoniae; [9],1.2
NC(N)=NCCCCN=C(N)N [Arcaine sulfate],fold induction at 50 µM,"E. cloacae; cutoff for positive-scoring molecules 3-fold increase, read-out: AK-based Prestwick Library Screening Results, E. cloacae (fold increase in extracellular AK activity)",1.2
same,fold induction at 50 µM,"[1]; cutoff for positive-scoring molecules 3-fold increase, read-out: AK-based Prestwick Library Screening Results, A. baumannii (fold increase in extracellular AK activity)",0.8
same,fold induction at 50 µM,"[2]; cutoff for positive-scoring molecules 3-fold increase, read-out: AK-based Prestwick Library Screening Results, S. aureus (fold increase in extracellular AK activity)",0.9
same,fold induction at 50 µM,"E. coli; cutoff for positive-scoring molecules 3-fold increase, read-out: AK-based Prestwick Library Screening Results, E. coli (fold increase in extracellular AK activity)",0.7
same,fold induction at 50 µM,"P. aeruginosa; cutoff for positive-scoring molecules 3-fold increase, read-out: AK-based Prestwick Library Screening Results, P. aeruginosa (fold increase in extracellular AK activity)",0.8
same,fold induction at 50 µM,"E. faecium; cutoff for positive-scoring molecules 3-fold increase, read-out: AK-based Prestwick Library Screening Results, E. faecium (fold increase in extracellular AK activity)",0.6
same,fold induction at 50 µM,"K. pneumoniae; cutoff for positive-scoring molecules 3-fold increase, read-out: AK-based Prestwick Library Screening Results, K. pneumoniae (fold increase in extracellular AK activity)",0.7
COC(=O)C1=CCCN(C)C1 [Arecoline hydrobromide],fold induction at 50 µM,"E. cloacae; planktonic E. cloacae, 384-well, […], read-out: AK-based Prestwick Library Screening Results: E. cloacae (increase in extracellular AK activity)",0.3
same,fold induction at 50 µM,"[1]; planktonic A. baumannii, 384-well, […], read-out: AK-based Prestwick Library Screening Results: A. baumannii (increase in extracellular AK activity)",0.4
same,fold induction at 50 µM,"[2]; planktonic S. aureus, 384-well, […], read-out: AK-based Prestwick Library Screening Results: S. aureus (increase in extracellular AK activity)",0.4
same,fold induction at 50 µM,"E. coli; planktonic E. coli, 384-well, […], read-out: AK-based Prestwick Library Screening Results: E. coli (increase in extracellular AK activity)",0.4
same,fold induction at 50 µM,"P. aeruginosa; planktonic P. aeruginosa, 384-well, […], read-out: AK-based Prestwick Library Screening Results: P. aeruginosa (increase in extracellular AK activity)",0.4
same,fold induction at 50 µM,"E. faecium; planktonic E. faecium, 384-well, […], read-out: AK-based Prestwick Library Screening Results: E. faecium (increase in extracellular AK activity)",0.9
same,fold induction at 50 µM,"K. pneumoniae; planktonic K. pneumoniae, 384-well, […], read-out: AK-based Prestwick Library Screening Results: K. pneumoniae (increase in extracellular AK activity)",0.4
C[C@@H]1CC[C@H]2[C@@H](C)C(=O)O[C@@H]3O[C@@]4(C)CC[C@@H]1[C@]32OO4 [Artemisinin],fold induction at 50 µM,"E. cloacae; planktonic E. cloacae, cutoff for positive-scoring molecules 3-fold increase, read-out: AK-based Prestwick Library Screening Results, E. cloacae (increase in extracellular AK activity)",0.7
same,fold induction at 50 µM,"[1]; planktonic A. baumannii, cutoff for positive-scoring molecules 3-fold increase, read-out: AK-based Prestwick Library Screening Results, A. baumannii (increase in extracellular AK activity)",0.7
same,fold induction at 50 µM,"[2]; planktonic S. aureus, cutoff for positive-scoring molecules 3-fold increase, read-out: AK-based Prestwick Library Screening Results, S. aureus (increase in extracellular AK activity)",0.5
same,fold induction at 50 µM,"E. coli; planktonic E. coli, cutoff for positive-scoring molecules 3-fold increase, read-out: AK-based Prestwick Library Screening Results, E. coli (increase in extracellular AK activity)",0.5
same,fold induction at 50 µM,"P. aeruginosa; planktonic P. aeruginosa, cutoff for positive-scoring molecules 3-fold increase, read-out: AK-based Prestwick Library Screening Results, P. aeruginosa (increase in extracellular AK activity)",0.6
same,fold induction at 50 µM,"E. faecium; planktonic E. faecium, cutoff for positive-scoring molecules 3-fold increase, read-out: AK-based Prestwick Library Screening Results, E. faecium (increase in extracellular AK activity)",0.9
same,fold induction at 50 µM,"K. pneumoniae; planktonic K. pneumoniae, cutoff for positive-scoring molecules 3-fold increase, read-out: AK-based Prestwick Library Screening Results, K. pneumoniae (increase in extracellular AK activity)",0.6
CCCNC(C)C(=O)Nc1c(C)csc1C(=O)OC (stereo not drawn) [Articaine hydrochloride],fold induction at 50 µM,E. cloacae; [3],1.6
same,fold induction at 50 µM,[1]; [4],1.2
same,fold induction at 50 µM,[2]; [5],1.1
same,fold induction at 50 µM,E. coli; [6],1.1
same,fold induction at 50 µM,P. aeruginosa; [7],1
same,fold induction at 50 µM,E. faecium; [8],1.2
same,fold induction at 50 µM,K. pneumoniae; [9],1.1
O=C1O[C@H]([C@@H](O)CO)C(O)=C1O [Ascorbic acid],fold induction at 50 µM,E. cloacae; [10],0.4
same,fold induction at 50 µM,[1]; [11],0.4
same,fold induction at 50 µM,[2]; [12],0.4
same,fold induction at 50 µM,E. coli; [13],0.5
same,fold induction at 50 µM,P. aeruginosa; [14],0.3
same,fold induction at 50 µM,E. faecium; [15],0.9
same,fold induction at 50 µM,K. pneumoniae; [16],0.5
COc1ccc(CCN2CCC(Nc3nc4ccccc4n3Cc3ccc(F)cc3)CC2)cc1 [Astemizole],fold induction at 50 µM,E. cloacae; [10],1.6
same,fold induction at 50 µM,[1]; [11],1.6
same,fold induction at 50 µM,[2]; [12],2.2
same,fold induction at 50 µM,E. coli; [13],1.3
same,fold induction at 50 µM,P. aeruginosa; [14],1
same,fold induction at 50 µM,E. faecium; [15],1
same,fold induction at 50 µM,K. pneumoniae; [16],1.1
